Measured values: patent publication EP0024779A1, “Drugs for use with intrauterine devices and intrauterine devices containing said drugs” (Shaw, Seth Thomas, Jr., priority 1979, dated 1981)

tested on: fibrinolytic activity; assay: Fibrinolytic inhibition, potency relative to dibromopropamidine; format: biochemical; conditions: on a molar concentration basis
Source text: The numerical values are expressed as a reciprocal of the concentration of the drug producing the equivalent inhibition to the dibromopropamidine. Where no values for relative potency are listed such values have not been specifically determined.

Q: For N=C(N)Nc1ccc(C(=O)Oc2ccc([N+](=O)[O-])cc2)cc1 [NPG3, p-nitrophenyl-p'-guanidinobenzoate], which “anti-fibrinolytic effect greater than that of dibromopropamidine” value is on record?
A: ~100 times

same assay, conditions: relative to dibromopropamidine; reciprocal of the concentration producing inhibition equivalent to dibromopropamidine

Q: Which “Relative Potency” value does the source give for N=C(N)c1ccc(OCCCCCCOc2ccc(C(=N)N)cc2Cl)c(Cl)c1 [Dichlorohexamidine] here?
A: 1.9

Q: For N=C(N)c1cccc(OCCCCCOc2cccc(C(=N)N)c2)c1 [m-Pentamidine], which “Relative Potency” value is on record?
A: 0.6

Q: Which “Relative Potency” value does the source give for N=C(N)c1ccc(Oc2ccc(C(=N)N)cc2)cc1 [Phenamidine] here?
A: 0.2

Q: With N=C(N)c1ccc(OCCCCCOc2ccc(C(=N)N)cc2)cc1 [Pentamidine] as the compound, how does the “Relative Potency” value read?
A: 2.4

Q: Which “Relative Potency” value does the source give for N=C(N)c1ccc(OCCCCCCOc2ccc(C(=N)N)cc2I)c(I)c1 [Diiodohexamidine] here?
A: 7.5

Q: For N=C(N)c1ccc(OCCCOc2ccc(C(=N)N)cc2)cc1 [Propamidine], which “Relative Potency” value is on record?
A: 1.2

Q: With N=C(N)c1ccc(OCCCCCCCOc2ccc(C(=N)N)cc2)cc1 [Heptamidine] as the compound, how does the “Relative Potency” value read?
A: 1.9

Q: With N=C(N)c1ccc(OCCCCCCCCOc2ccc(C(=N)N)cc2)cc1 [Octamidine] as the compound, how does the “Relative Potency” value read?
A: 2.6

Q: With N=C(N)c1ccc(OCCCCCOc2ccc(C(=N)N)cc2Br)c(Br)c1 [Dibromopentamidine] as the compound, how does the “Relative Potency” value read?
A: 3.6

Q: For N=C(N)c1ccc(OCCCCCCOc2ccc(C(=N)N)cc2I)cc1 [Monoiodohexamidine], which “Relative Potency” value is on record?
A: 4.4

Q: For N=C(N)c1ccc(OCCCCCOc2ccc(C(=N)N)cc2I)c(I)c1 [Diiodopentamidine], which “Relative Potency” value is on record?
A: 6.8

Q: With N=C(N)c1ccc(OCCCCCCOc2ccc(C(=N)N)cc2)cc1 [Hexamidine] as the compound, how does the “Relative Potency” value read?
A: 1.6

Q: With N=C(N)c1ccc(OCCCOc2ccc(C(=N)N)cc2Br)c(Br)c1 [Dibromopropamidine] as the compound, how does the “Relative Potency” value read?
A: 1.0

tested on: fibrinolytic activity; assay: not given; conditions: over a prolonged period of time inside the uterus; cited from earlier work

Q: Which “inhibitor concentration required to be effective” value does the source give for NC[C@H]1CC[C@H](C(=O)O)CC1 [tranexamic acid] here?
A: 0.0001 mol/L

Q: Which “inhibitor concentration required to be effective” value does the source give for NCCCCCC(=O)O [EACA, epsilon aminocaproic acid] here?
A: 0.001 mol/L

tested on: IUD associated uterine hemmorhage; assay: not given; conditions: systemic (oral) intake; cited from earlier work

Q: For NC[C@H]1CC[C@H](C(=O)O)CC1 [tranexamic acid], which “IUD associated uterine hemmorhage” value is on record?
A: alleviated

Q: With NCCCCCC(=O)O [EACA, epsilon aminocaproic acid] as the compound, how does the “IUD associated uterine hemmorhage” value read?
A: alleviated
